Measurements as given in patent US9574176B2 (priority 2012, dated 2017).

Key:
[1] = tested on: WT mouse-derived neural stem cells; type: cell-based
[2] = tested on: human neural progenitor cells (NHNP); type: cell-based

**Q.** With ω-conotoxin GVIA as the substance, how does the “differentiation after passaging with inhibitor” value [1] read?
**A.** differentiation into Tuj-1 (class III β-tubulin)-positive nerve cells and GFAP (grail fibrillary acidic protein)-positive astrocytes could be confirmed

**Q.** What about the “differentiation after passaging with inhibitor” value [2] of the same substance?
**A.** many cells differentiate into Tuj-1 (class III β-tubulin)-positive nerve cells and some cells differentiate into GFAP (grail fibrillary acidic protein)-positive astrocytes
